Measured values reported in patent publication US9518065B2, “IRAK inhibitors and uses thereof” (NIMBUS IRIS, INC., priority 2013, dated 2016).
Where two headings read alike, the source gives them in different places.

Key:
IRAK4 = target: T1, IRAK4 (Homo sapiens, UniProt Q9NWZ3); assay: IRAK-4 activity inhibition assay (Caliper); assay type: biochemical; settings: 3.5 nM IRAK4, 37 μM ATP, 1.5 μM Peptide 8
T1 construct: purchased CARNA Bioscience 09-145
T1 sequence (Q9NWZ3 1-460): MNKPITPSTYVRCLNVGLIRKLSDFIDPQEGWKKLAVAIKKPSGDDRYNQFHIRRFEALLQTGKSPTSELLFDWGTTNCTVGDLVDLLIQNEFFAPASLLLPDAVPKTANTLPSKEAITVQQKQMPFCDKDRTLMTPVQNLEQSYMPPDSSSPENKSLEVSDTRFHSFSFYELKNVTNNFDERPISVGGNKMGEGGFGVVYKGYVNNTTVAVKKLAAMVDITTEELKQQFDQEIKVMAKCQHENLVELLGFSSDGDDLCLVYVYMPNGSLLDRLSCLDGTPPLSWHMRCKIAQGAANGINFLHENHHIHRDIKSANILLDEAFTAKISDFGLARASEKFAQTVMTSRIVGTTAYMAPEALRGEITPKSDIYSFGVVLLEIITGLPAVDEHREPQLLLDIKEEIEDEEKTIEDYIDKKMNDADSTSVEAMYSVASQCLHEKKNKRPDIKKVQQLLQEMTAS
Description: A 1× kinase base buffer was prepared from 50 mM HEPES, pH 7.5 and 0.0015% Brij-35. A stop buffer was prepared from 100 mM HEPES, pH 7.5, 0.015% Brij-35, 0.2% Coating Reagent #3, and 50 mM EDTA.
Test compound was diluted to 50× of the final desired highest inhibitor concentration in reaction by 100% DMSO. 100 ul of this compound dilution was transferred to a well in a 96-well plate. For example, if desired highest inhibitor concentration in IC50 determination is 100 uM, then prepare 5000 uM of compound DMSO solution in this step.
Test compound was serially diluted by transferring 30 μl to 60 μl of 100% DMSO in the next well and so forth for a total of 10 concentrations. 100 μl of 100% DMSO was added to two empty wells for no compound control and no enzyme control in the same 96-well plate.
A new 96-well plate was marked as intermediate plate. 5 μl of compound serial dilution was transferred from source plate to the corresponding wells of the intermediate plate. 45 μl of 1× kinase base buffer (KB buffer) was added to each well of the intermediate plate. The intermediate plate was placed for 10 min on a shaker.
5 μl of each well was transferred from the 96-well intermediate plate to a 384-well plate in duplicates. For example, A1 of the 96-well plate is transferred to A1 and A2 of the 384-well plate. A2 of the 96-well plate is transferred to A3 and A4 of the 384-well plate, and so on.
IRAK4 and DTT in 1× kinase base buffer was added. The 2.5× enzyme mix contained 8.8 nM IRAK4 and 5 mM DTT.
Peptide 8, ATP, MgCl2 and MnCl2 were added in the 1× kinase base buffer. The 2.5× peptide mix contained 3.75 μM peptide 8, 92.5 μM ATP, 12.5 mM MgCl2 and 2.5 mM MnCl2.
Assay plate already contained 5 μl of compound in 10% DMSO. Added 10 μl of 2.5× enzyme solution to each well of the 384-well assay plate, except no enzyme control wells. The final concentration of IRAK4 in reaction was 3.5 nM. Added 10 μl of 1× kinase base buffer to no enzyme control wells in the assay plate. Incubated at room temperature for 10 min.
Added 10 μl of 2.5× peptide solution to each well of the 384-well assay plate. The final concentration of Peptide 8 and ATP was 1.5 μM and 37 μM, respectively. Incubated at 28° C. for 40 minutes. Added 25 μl of stop buffer to stop reaction. Collected data on Caliper.
Copied conversion % data from Caliper program. Converted conversion % values to percent inhibition values. Percent inhibition=(max-conversion %)/(max-min)*100, where “max” means the conversion % of DMSO control and “min” means the conversion % of no enzyme control.
The compound numbers correspond to the compound numbers in Table 1. Compounds having an activity designated as “A” provided an IC50≦1 μM; compounds having an activity designated as “B” provided an IC50 of 1-5 μM; compounds having an activity designated as “C” provided an IC50 of ≧5 μM. “NA” stands for “not assayed.”

[1] = tested on: TNFα and IL8 production in THP-1 cells; assay: LPS induced cytokine (TNFα and IL8) production assay in THP-1 cells; assay type: cell-based; settings: Homo sapiens, 300 ng/mL LPS
Description: Provided compounds were also assayed in an LPS (Lipopolysacharide) or R848 (TLR-7 agonist) induced cytokine (TNFα and IL8) production assay in THP-1 cells, human white blood cells (hWBC), and whole blood. The exemplary protocol for this assay in THP-1 cells was as follows below.
THP-1 cells from ATCC (TIB-202) were cultured in RPMI Medium 1640 (Invitrogen, Cat No. A10491-01), 10% fetal bovine serum (Invitrogen, Cat No. 10099141, Lot No. 8172882) containing 100 U/mL Penicillin, 100 μg/mL streptomycin (Invitrogen, Cat No. 15140-122), and 50 uM 2-Mercaptoethanol (Invitrogen, Cat No. 21985023). LPS-EK ultra pure (Invivogen, Cat No. tlrl-peklps) was used to induce IL8 and TNFα production, that was detected in the cell culture supernatant by IL8 HTRF kit (Cisbio, Cat No. 62IL8PEB) and TNFα HTRF kit (Cisbio, Cat No. 62TNFPEB), as per manufacturer instructions. Cells were cultured in 96 well assay plates at 100,000 cells per well, and compounds diluted in final 0.3% DMSO were pre-incubated with cells for 1 hour prior to stimulation with 300 ng/mL LPS. Cytokine production in cell supernatant was measured at 5 hours for TNFα and IL8 production, and for 16 hours for IL8 production and assessment of cell viability.
The compound numbers correspond to the compound numbers in Table 1. […] “NA” stands for “not assayed.”

[2] = 5 hours, read-out: TNFα production IC50
[3] = 16 hours, read-out: IL8 (16 h) production IC50

Row | Compound | IC50 (IRAK4) [nM] | IC50 [1, 2] [nM] | IC50 [1, 3] [nM]
1 | CCc1nc2c(N[C@H]3CC[C@H](N4CCOCC4)CC3)nc(Nc3cnn(C(C)C)c3)nc2s1 [Compound I-8, 2-ethyl-N5-(1-isopropyl-1H-pyrazol-4-yl)-N7-((1r,4r)-4-morpholinocyclohexyl)thiazolo[5,4-d]pyrimidine-5,7-diamine] | ≤ 1000 | ≤ 250 | ≤ 250
2 | CCc1nc2c(N[C@H]3CC[C@H](N4CCOCC4)CC3)nc(Nc3cnn(C4CCS(=O)(=O)CC4)c3)nc2s1 [Compound I-10, 4-(4-((2-ethyl-7-(((1r,4r)-4-morpholino-cyclohexyl)amino)-thiazolo[5,4-d]pyrimidin-5-yl)amino)-1H-pyrazol-1-yl)tetrahydro-2H-thiopyran 1,1-dioxide] | ≤ 1000 | ≤ 250 | ≤ 250
3 | CCc1nc2c(N[C@H]3CC[C@@H](N4CCC(F)(F)CC4)CC3)nc(Nc3cnn(C)c3)nc2s1 [Compound I-12, N7-((1s,4s)-4-(4,4-difluoropiperidin-1-yl)cyclohexyl)-2-ethyl-N5-(1-methyl-4H-pyrazol-4-yl)thiazolo[5,4-d]pyrimidine-5,7-diamine] | ≤ 1000 | 250 to 500 | 250 to 500
4 | CCc1nc2c(N[C@H]3CC[C@H](N4CCC5(CC4)COC5)CC3)nc(Nc3cnn(C)c3)nc2s1 [Compound I-13, N7-((1r,4r)-4-(2-oxa-7-azaspiro[3.5]nonan-7-yl)cyclohexyl)-2-ethyl-N5-(1-methyl-1H-pyrazol-4-yl)thiazolo[5,4-d]pyrimidine-5,7-diamine] | ≤ 1000 | ≤ 250 | ≤ 250
5 | CCc1nc2c(N[C@H]3CC[C@H](N4CCC5(CC4)COC5)CC3)nc(Nc3cnn(C4CCOCC4)c3)nc2s1 [Compound I-14, N7-((1r,4r)-4-(2-oxa-7-azaspiro[3.5]nonan-7-yl)cyclohexyl)-2-ethyl-N5-(1-(tetrahydro-2H-pyran-4-yl)-1H-pyrazol-4-yl)thiazolo[5,4-d]pyrimidine-5,7-diamine] | ≤ 1000 | ≤ 250 | ≤ 250
6 | CCc1nc2c(N[C@H]3CC[C@H](N4CCC(O)CC4)CC3)nc(Nc3cnn(C4CCOCC4)c3)nc2s1 [Compound I-16] | ≤ 1000 | ≤ 250 | –
7 | CCc1nc2c(N[C@H]3CC[C@H](N4CCC(O)CC4)CC3)nc(Nc3cnn(C)c3)nc2s1 [Compound I-17, 1-((1r,4r)-4-((2-ethyl-5-((1-methyl-1H-pyrazol-4-yl)amino)-thiazolo[5,4-d]pyrimidin-7-yl)amino)cyclohexyl)piperidin-4-ol] | ≤ 1000 | ≤ 250 | –
8 | CCc1nc2c(N[C@H]3CC[C@H](N4CCOCC4)CC3)nc(Nc3cnn(CC4CCOCC4)c3)nc2s1 [Compound I-18, 2-ethyl-N7-((1r,4r)-4-morpholinocyclohexyl)-N5-(1-((tetrahydro-2H-pyran-4-yl)methyl)-1H-pyrazol-4-yl)thiazolo[5,4-d]pyrimidine-5,7-diamine] | ≤ 1000 | ≤ 250 | ≤ 250
9 | CCc1nc2c(N[C@H]3CC[C@H](N4CCC(F)(F)CC4)CC3)nc(Nc3cnn(C4CCOCC4)c3)nc2s1 [Compound I-19, 2-ethyl-5-N-[1-(oxan-4-yl)-1H-pyrazol-4-yl]-7-N-[trans-4-(4,4-difluoropiperidin-1-yl)cyclohexyl]-[1,3]thiazolo[5,4-d]pyrimidine-5,7-diamine] | ≤ 1000 | ≤ 250 | –
10 | CCc1nc2c(N[C@H]3CC[C@H](N4CCC5(CC4)CC5)CC3)nc(Nc3cnn(C)c3)nc2s1 [Compound I-21, N7((1r,4r)-4-(6-azaspiro[2.5]octan-6-yl)cyclohexyl)-2-ethyl-N5-(1-methyl-1H-pyrazol-4-yl)thiazolo[5,4-d]pyrimidine-5,7-diamine] | ≤ 1000 | ≤ 250 | ≤ 250
11 | CCc1nc2c(N[C@H]3CC[C@H](N4CCOCC4)CC3)nc(Nc3cnn(CC)c3)nc2s1 [Compound I-22, 2-ethyl-N5-(1-ethyl-1H-pyrazol-4-yl)-N7-((1r,4r)-4-morpholino-cyclohexyl)thiazolo[5,4-d]pyrimidine-5,7-diamine] | ≤ 1000 | 250 to 500 | ≤ 250
12 | CCc1nc2c(N[C@H]3CC[C@H](N4CCC5(CC4)CC5)CC3)nc(Nc3cnn(C4CCOCC4)c3)nc2s1 [Compound I-23, N7-((1r,4r)-4-(6-azaspiro[2.5]octan-6-yl)cyclohexyl)-2-ethyl-N5-(1-(tetrahydro-2H-pyran-4-yl)-1H-pyrazol-4-yl)thiazolo[5,4-d]pyrimidine-5,7-diamine] | ≤ 1000 | 250 to 500 | ≤ 250
13 | Cc1nc2c(N[C@H]3CC[C@H](N4CCOCC4)CC3)nc(Nc3cnn(C4CCOCC4)c3)nc2s1 [Compound I-25, 2-methyl-N7-((1r,4r)-4-morpholinocyclohexyl)-N5-(1-(tetrahydro-2H-pyran-4-yl)-1H-pyrazol-4-yl)thiazolo[5,4-d]pyrimidine-5,7-diamine] | ≤ 1000 | ≤ 250 | ≤ 250
14 | CCc1nc2c(O[C@H]3CC[C@H](N4CCOCC4)CC3)nc(Nc3cnn(C4CCOCC4)c3)nc2s1 [Compound I-26, 2-ethyl-7-(((1r,4r)-4-morpholinocyclohexyl)oxy)-N-(1-(tetrahydro-2H-pyran-4-yl)-1H-pyrazol-4-yl)thiazolo[5,4-d]pyrimidin-5-amine] | ≤ 1000 | ≤ 250 | ≤ 250
15 | CCc1nc2c(N[C@H]3CC[C@H](N4CCOCC4)CC3)nc(Nc3cnn(CCCS(C)(=O)=O)c3)nc2s1 [Compound I-27, 2-ethyl-N5-(1-(3-(methylsulfonyl)propyl)-1H-pyrazol-4-yl)-N7-((1r,4r)-4-morpholinocyclohexyl)thiazolo[5,4-d]pyrimidine-5,7-diamine] | ≤ 1000 | 250 to 500 | ≤ 250
16 | CCc1nc2c(N[C@H]3CC[C@H](N4CCOCC4)CC3)nc(Nc3cnn(CCOCCO)c3)nc2s1 [Compound I-28, 2-(2-(4-((2-ethyl-7-(((1r,4r)-4-morpholinocyclohexyl)amino)thia-zolo[5,4-d]pyrimidin-5-yl)amino)-1H-pyrazol-1-yl)ethoxy)ethan-1-ol] | ≤ 1000 | 250 to 500 | ≤ 250
